{"source": "patent US9630964B2", "about": "“Fluoro-9-methyl-β-carbolines” (priority 2013, dated 2017)", "key": {"[1]": {"test_system": "DKK1 (Dickkopf-related protein 1)", "experiment": "Quantitative RT-PCR, relative gene expression of DKK1 in SH-SY5Y cells", "format": "cell-based, human", "method": "SH-SY5Y cell lines, which were provided by the institute of human genetics of university hospital Eppendorf and which they in turn received from Braunschweig resource center, were used again for the RT-PCR experiments (reverse transcriptase polymerase chain reaction) carried out for this purpose.\nThe cells were incubated in MEM (Minimum essential medium, Life Technologies) with 10% FCS (fetal calf serum, Biochrom AG) and penicillin/streptomycin (Biochrom AG). The cells were seeded with a density of 1×10^5 cells/cm^2 in 25 cm^2 cell culture bottles (Falcon, cell culture treated) with 5 mL medium. Stock solutions of 10 mmol/L of compounds 9-methyl-β-carboline (AC-002 or 9MβC) and 6-fluoro-9-methyl-β-carboline (AC-102 or 6F9MβC), respectively were prepared in distillated water and sterile filtered. One day after the cell seeding the compounds were added in corresponding amounts (5-55 μL) to reach final concentration in the medium of 10 μM, 20 μM and 30 μM for 6F9MβC and 30 μM, 50 μM and 70 μM for 9MβC. The references received only the corresponding amount of solvent (distilled water). The medium was changed once a week.\nThe cells were regularly microscopically examined and harvest after 2, 7 and 14 days of incubation time, washed with PBS and immediately frozen at −80° C.\nThe RNA-isolation was done with the HighPure RNA Isolation kit of the company Roche. This isolation includes a DNaseI digestion. The concentration of RNA was measured with nanoDrop spectrometer and the RNA integrity was determined with the aid of the Bioanalyzer 2100 (Agilent). By using random hexamer primers, protector RNA inhibitor (Roche) and transcriptor reverse transcriptase (fermentas), 300 ng RNA were transcribed into cDNA per each sample.\nAfter the reaction, this run was diluted 1:4 and thereof 2 μL per each quantitative RT-PCR were used. This was performed in a LightCycler 480 under standard conditions in the SybrGreen format with annealing temperatures determined for each primer individually. If possible, exon spanning primers were used.\nThe specificity was verified by melting curve analysis and subsequent gel electrophoresis. For each PCR the PCR efficiency and the Cq value was determined by the program LinRegPCR and these were used in further calculations. B2M (β2-microglobulin) was identified from multiple reference genes to be suitable for examination conditions. All results are results relative to the corresponding reference conditions, at which only solvent was administered for the specified period of time (i.e. 2 days, 7 days or 14 days). In FIGS. 5A to 5I are also relative gene expressions (relative to reference conditions) presented. Here, the 2-day exposition is presented in light grey, the 7-day exposition in dark grey and the 14-day exposition in black. Every measured value from FIGS. 5A-5I represents a mean value of 3 independent biologic samples.\nAnalogous to example 4 RT-PCR experiments with the inventive active agent 7-fluoro-9-methyl-β-carboline (7F9MβC) were also performed for some important cellular factors. The experimental procedure was here identical to the experiments with 6-fluoro-9-methyl-β-carboline and 9-methyl-β-carboline. Here the same (like for 6F9MβC) final concentrations of 30 μM, 50 μM and 70 μM 7F9MβC for the culture medium were employed. The examined factors were BDNF (brain-derived neurotrophic factor), Lif (Leukemia inhibitory factor), DRD2S (short variant of dopamine receptor subtype 2) as well as DKK1 (Dickkopf-related protein 1). […]"}, "physchem": {"experiment": "physchem", "details": "water", "protocol": "Furthermore, the solubility of both compounds in water was determined by preparing concentration series of both compounds in water at room temperature. The concentration at which the compound was barely soluble was determined by external calibration. The corresponding concentration was quantified by HPLC."}, "[2]": {"test_system": "human neuroblastoma cells (SH-SY5Y)", "experiment": "Differentiation of human neuroblastoma cells (SH-SY5Y), morphological examination", "format": "cell-based", "details": "SH-SY5Y", "method": "The SH-SY5Y cell line was obtained from the German collection of microorganisms and cell cultures—DSMZ, Braunschweig. The cells were cultivated in MEM (Minimum essential medium, Life Technologies) with 10% FCS (fetal calf serum, Biochrom AG) and penicillin/streptomycin (Biochrom AG). For morphological examinations the cells were seeded in a density of 1.5×10^4 cells/cm^2 in 24-well plates (Falcon, cell culture treated) with 1 mL medium. A stock solution of 10 mmol/L of the compound according to the invention 6-fluoro-9-methyl-β-carboline was prepared in 50% ethanol and sterile filtered. Five hours after seeding of the cells the compound according to the invention 6-fluoro-9-methyl-β-carboline was added in the corresponding amount to the medium achieving the desired final concentration. The medium was changed once a week. The cells were regularly microscopically examined. Microscopic images were taken at BZ Keyence 10 with a 10×lens and 4×digital zoom. An automatic contrast enhancement was made with the program BZ Analyzer."}}}
{"compound": "Cn1c2ccc(F)cc2c2ccncc21", "note": "[6F9MβC, 6-fluoro-9-methyl-β-carboline]", "values": [{"measurement": "DKK1 expression compared to the highest concentration of 9MβC", "setting": "[1]; 10 μM 6F9MβC", "result": "comparable or even higher"}, {"measurement": "DKK1 expression relative to expression induced by 9MβC", "setting": "[1]; 30 μM each, 14-day exposition", "result": "comparable"}, {"measurement": "solubility", "setting": "physchem", "result": 29.7, "unit": "µg/mL"}, {"measurement": "concentration at which a comparable differentiation of the tested cells is observed", "setting": "[2]; 15 days incubation", "result": 30, "unit": "µM"}, {"measurement": "effect on proliferation and morphology of cells", "setting": "[2]; 15 days, increasing concentrations, pronounced at 30 μM vs 0 μM", "result": "inhibits proliferation of cells and induces sprouting of slim extensions as well as a change in size and shape of the cells"}]}
